US20250059220A1, “SUBSTITUTED BENZOTHIOPHENE DERIVATIVES AND METHODS OF USE THEREOF” (Merck Sharp & Dohme LLC, priority 2021, published 2025)
pIC50: −log10 of the molar value.

Assays:
human PTPN2 (1-387) = human PTPN2 (1-387) (Homo sapiens (Human), UniProt P17706); experiment: Human PTPN2 Biochemical Assay; conditions: DiFMUP substrate
In short: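 Fluorogenic DiFMUP hydrolysis (1 h, room temperature, read ex 360/em 460 nm) after 30 min compound preincubation with PTPN2 residues 1-387, in 50 mM Tris pH 7.4, 150 mM NaCl, 0.01% Tween20, 0.5 mM DTT. Effects scaled between buffer and enzyme controls, 4-parameter fit gives EC50.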

human PTPN1 (1-435) = human PTPN1 (1-435) (Homo sapiens (Human), UniProt P18031); experiment: Human PTPN1 Biochemical Assay; conditions: DiFMUP substrate, read-out: PTP1B IC50
In short: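 Read-out is DiFMUP hydrolysis fluorescence (360 nm excitation, 460 nm emission) after 1 h at room temperature, following 30 min enzyme–compound preincubation.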

Sequence of human PTPN2 (1-387) (P17706 other isoform, or with tags, fused parts or gaps): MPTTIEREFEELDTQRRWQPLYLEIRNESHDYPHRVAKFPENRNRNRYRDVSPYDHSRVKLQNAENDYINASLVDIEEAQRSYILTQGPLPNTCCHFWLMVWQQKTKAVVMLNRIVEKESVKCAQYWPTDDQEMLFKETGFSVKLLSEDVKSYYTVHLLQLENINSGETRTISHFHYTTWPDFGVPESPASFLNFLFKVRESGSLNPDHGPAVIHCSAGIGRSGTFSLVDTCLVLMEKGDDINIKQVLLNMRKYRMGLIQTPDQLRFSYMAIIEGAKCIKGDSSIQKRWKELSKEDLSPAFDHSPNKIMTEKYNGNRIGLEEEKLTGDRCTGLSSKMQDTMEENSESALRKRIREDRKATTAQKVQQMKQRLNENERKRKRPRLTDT
Sequence of human PTPN1 (1-435) (P18031 whole entry): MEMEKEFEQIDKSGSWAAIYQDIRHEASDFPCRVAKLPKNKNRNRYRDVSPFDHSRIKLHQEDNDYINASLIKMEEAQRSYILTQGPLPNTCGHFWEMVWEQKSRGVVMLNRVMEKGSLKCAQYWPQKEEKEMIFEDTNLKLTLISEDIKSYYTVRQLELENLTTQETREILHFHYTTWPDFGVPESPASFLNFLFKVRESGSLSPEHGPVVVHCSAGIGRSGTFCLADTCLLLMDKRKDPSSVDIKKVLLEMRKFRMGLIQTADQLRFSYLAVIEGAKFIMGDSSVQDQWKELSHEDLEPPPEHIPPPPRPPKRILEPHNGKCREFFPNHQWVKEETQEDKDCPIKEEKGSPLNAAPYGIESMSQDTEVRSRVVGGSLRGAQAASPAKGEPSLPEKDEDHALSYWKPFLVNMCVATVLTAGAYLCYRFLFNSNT

pIC50 (human PTPN2 (1-387))	pIC50 (human PTPN1 (1-435))	SMILES
5.93	5.84	O=C(NCc1ccc(F)nc1)c1ccc2sc(C(F)(F)P(=O)(O)O)c(Br)c2c1 [Compound 133]
5.85	5.96	Cc1ccc(CNC(=O)c2ccc3sc(C(F)(F)P(=O)(O)O)c(Br)c3c2)nn1 [Compound 137]
5.74	5.83	O=C(NCc1c[nH]nn1)c1ccc2sc(C(F)(F)P(=O)(O)O)c(Br)c2c1 [Compound 140]
5.43	5.64	Cn1cncc1CNC(=O)c1ccc2sc(C(F)(F)P(=O)(O)O)c(Br)c2c1 [Compound 141]
5.14	5.85	O=C(NCCn1cccn1)c1ccc2sc(C(F)(F)P(=O)(O)O)c(Br)c2c1 [Compound 144]
5.16	5.34	CC(Cn1cncn1)NC(=O)c1ccc2sc(C(F)(F)P(=O)(O)O)c(Br)c2c1 (stereo not drawn) [Compound 145]
5.13	5.44	O=C(NCCn1cncn1)c1ccc2sc(C(F)(F)P(=O)(O)O)c(Br)c2c1 [Compound 146]
5.25	5.50	O=C(NCCn1ccnn1)c1ccc2sc(C(F)(F)P(=O)(O)O)c(Br)c2c1 [Compound 147]
5.23	5.28	CC(Cn1ccnc1)NC(=O)c1ccc2sc(C(F)(F)P(=O)(O)O)c(Br)c2c1 (stereo not drawn) [Compound 148]
5.20	5.59	O=C(NCCn1nncc1-c1ccccc1)c1ccc2sc(C(F)(F)P(=O)(O)O)c(Br)c2c1 [Compound 150]
5.71	5.50	O=C(NCCc1c[nH]c2ccccc12)c1ccc2sc(C(F)(F)P(=O)(O)O)c(Br)c2c1 [Compound 153]
5.28	5.62	O=C(NCCSC(F)(F)F)c1ccc2sc(C(F)(F)P(=O)(O)O)c(Br)c2c1 [Compound 157]
6.34	5.84	O=C(NC(c1cccnc1)C(F)(F)F)c1ccc2sc(C(F)(F)P(=O)(O)O)c(Br)c2c1 (stereo not drawn) [Compound 158]
6.41	6.17	O=C(NCc1c[nH]nn1)c1cc(F)c2sc(C(F)(F)P(=O)(O)O)c(Br)c2c1 [Compound 165]
5.44	5.50	O=C(NCc1cccnn1)c1cc(O)c2sc(C(F)(F)P(=O)(O)O)c(Br)c2c1 [Compound 166]
5.51	5.45	O=C(NCc1c[nH]nn1)c1cc(O)c2sc(C(F)(F)P(=O)(O)O)c(Br)c2c1 [Compound 167]
6.20	6.29	CC(C)(O)CCOc1cc(C(N)=O)cc2c(Br)c(C(F)(F)P(=O)(O)O)sc12 [Compound 170]
5.83	5.66	N#Cc1c(C(F)(F)P(=O)(O)O)sc2ccc(C(=O)NCc3ncn[nH]3)cc12 [Compound 171]
6.24	6.13	N#Cc1c(C(F)(F)P(=O)(O)O)sc2ccc(C(=O)NCc3c[nH]nn3)cc12 [Compound 173]
6.19	5.86	C[C@@H](NC(=O)c1ccc2sc(C(F)(F)P(=O)(O)O)c(C#N)c2c1)c1cccnn1 [Compound 186]

The remaining lines, values behind:

SMILES	pIC50 (human PTPN2 (1-387))	pIC50 (human PTPN1 (1-435))
C[C@@H](NC(=O)c1ccc2sc(C(F)(F)P(=O)(O)O)c(Br)c2c1)c1cccnn1 [Compound 130]	5.92	5.96
O=C1NC[C@@H](CNC(=O)c2ccc3sc(C(F)(F)P(=O)(O)O)c(Br)c3c2)N1 [Compound 131]	5.38	5.38
O=C1NC[C@H](CNC(=O)c2ccc3sc(C(F)(F)P(=O)(O)O)c(Br)c3c2)N1 [Compound 132]	5.28	5.33
O=C(NCc1ccc[n+]([O-])c1)c1ccc2sc(C(F)(F)P(=O)(O)O)c(Br)c2c1 [Compound 134]	5.54	5.62
O=C(NCc1cncc(F)c1)c1ccc2sc(C(F)(F)P(=O)(O)O)c(Br)c2c1 [Compound 135]	5.72	5.72
O=C1CCC(CNC(=O)c2ccc3sc(C(F)(F)P(=O)(O)O)c(Br)c3c2)N1 (stereo not drawn) [Compound 136]	5.37	5.43
CC(NC(=O)c1ccc2sc(C(F)(F)P(=O)(O)O)c(Br)c2c1)c1cncnc1 (stereo not drawn) [Compound 138]	5.54	5.68
O=C(NCc1ncn[nH]1)c1ccc2sc(C(F)(F)P(=O)(O)O)c(Br)c2c1 [Compound 139]	5.83	5.89
O=C(NCc1cn2ccccc2n1)c1ccc2sc(C(F)(F)P(=O)(O)O)c(Br)c2c1 [Compound 142]	5.73	5.58
O=C(NCCn1cnnc1)c1ccc2sc(C(F)(F)P(=O)(O)O)c(Br)c2c1 [Compound 143]	5.21	5.36
Cc1cnn(CCNC(=O)c2ccc3sc(C(F)(F)P(=O)(O)O)c(Br)c3c2)c1 [Compound 149]	5.22	5.50
CC(CC1C=Nc2ccc(F)cc21)NC(=O)c1ccc2sc(C(F)(F)P(=O)(O)O)c(Br)c2c1 (stereo not drawn) [Compound 151]	5.22	5.56
COc1ccc2c(c1)C(CC(C)NC(=O)c1ccc3sc(C(F)(F)P(=O)(O)O)c(Br)c3c1)C=N2 (stereo not drawn) [Compound 152]	5.09	5.36
COc1ccc2[nH]cc(CCNC(=O)c3ccc4sc(C(F)(F)P(=O)(O)O)c(Br)c4c3)c2c1 [Compound 154]	5.56	5.82
Cn1cc(CCNC(=O)c2ccc3sc(C(F)(F)P(=O)(O)O)c(Br)c3c2)c2ccccc21 [Compound 155]	5.66	5.62
O=C(NCCn1ccc2ccccc21)c1ccc2sc(C(F)(F)P(=O)(O)O)c(Br)c2c1 [Compound 156]	6.04	5.75
O=C(NCc1c[nH]nn1)c1cc(Cl)c2sc(C(F)(F)P(=O)(O)O)c(Br)c2c1 [Compound 159]	6.33	6.60
O=C(NCc1cccnn1)c1cc(Cl)c2sc(C(F)(F)P(=O)(O)O)c(Br)c2c1 [Compound 160]	6.26	6.50
N#Cc1cc(C(=O)NCc2cccnn2)cc2c(Br)c(C(F)(F)P(=O)(O)O)sc12 [Compound 161]	6.46	6.35
N#Cc1cc(C(=O)NCc2c[nH]nn2)cc2c(Br)c(C(F)(F)P(=O)(O)O)sc12 [Compound 162]	6.65	6.61
COc1cc(C(=O)NCc2cccnn2)cc2c(Br)c(C(F)(F)P(=O)(O)O)sc12 [Compound 163]	6.52	6.36
O=C(NCc1cccnn1)c1cc(F)c2sc(C(F)(F)P(=O)(O)O)c(Br)c2c1 [Compound 164]	6.36	6.44

SMILES	pIC50 (human PTPN2 (1-387))	pIC50 (human PTPN1 (1-435))
NC(=O)c1cc(OCCCC(F)(F)F)c2sc(C(F)(F)P(=O)(O)O)c(Br)c2c1 [Compound 168]	7.53	7.55
N#Cc1c(C(F)(F)P(=O)(O)O)sc2ccc(C(=O)NCc3cccnn3)cc12 [Compound 172]	6.24	6.18
O=C(NCc1ncc[nH]1)c1ccc2sc(C(F)(F)P(=O)(O)O)c(Br)c2c1 [Compound 174]	5.38	5.07
CC(NC(=O)c1ccc2sc(C(F)(F)P(=O)(O)O)c(Br)c2c1)c1nncn1C (stereo not drawn) [Compound 175]	5.69	5.85
C[C@@H](NC(=O)c1ccc2sc(C(F)(F)P(=O)(O)O)c(Br)c2c1)c1ccnn1C [Compound 176]	5.33	5.57
CCC(NC(=O)c1ccc2sc(C(F)(F)P(=O)(O)O)c(Br)c2c1)c1cccnc1 (stereo not drawn) [Compound 177]	5.68	6.08
Cn1cnc(CNC(=O)c2ccc3sc(C(F)(F)P(=O)(O)O)c(Br)c3c2)c1 [Compound 178]	5.23	4.96
O=C(NCc1ccon1)c1ccc2sc(C(F)(F)P(=O)(O)O)c(Br)c2c1 [Compound 179]	5.59	5.55
O=C(NC1(c2cccnc2)CC1)c1ccc2sc(C(F)(F)P(=O)(O)O)c(Br)c2c1 [Compound 180]	5.18	4.86
Cn1cnc(CNC(=O)c2ccc3sc(C(F)(F)P(=O)(O)O)c(Br)c3c2)n1 [Compound 181]	5.39	5.62
C[C@@H](NC(=O)c1ccc2sc(C(F)(F)P(=O)(O)O)c(Br)c2c1)c1ncc(F)cn1 [Compound 182]	5.29	5.58
Cc1cnc(F)c(CNC(=O)c2ccc3sc(C(F)(F)P(=O)(O)O)c(Br)c3c2)c1 [Compound 183]	5.70	5.85
O=C(NCc1ncc(F)cn1)c1ccc2sc(C(F)(F)P(=O)(O)O)c(Br)c2c1 [Compound 184]	5.13	5.30
C[C@H](NC(=O)c1ccc2sc(C(F)(F)P(=O)(O)O)c(Br)c2c1)c1ccccn1 [Compound 185]	5.28	5.47
O=C(NCc1n[nH]c(=O)[nH]1)c1ccc2sc(C(F)(F)P(=O)(O)O)c(Br)c2c1 [Compound 187]	5.73	6.02
O=C(NCc1cnsn1)c1ccc2sc(C(F)(F)P(=O)(O)O)c(Br)c2c1 [Compound 188]	5.85	6.15
O=C(NCc1cc(C2CC2)on1)c1ccc2sc(C(F)(F)P(=O)(O)O)c(Br)c2c1 [Compound 189]	5.88	6.00
Cc1cc(CNC(=O)c2ccc3sc(C(F)(F)P(=O)(O)O)c(Br)c3c2)no1 [Compound 190]	5.74	5.99
CCC(NC(=O)c1ccc2sc(C(F)(F)P(=O)(O)O)c(Br)c2c1)c1ncnn1C (stereo not drawn) [Compound 191]	5.55	5.44
O=C(NC(CO)c1ccccn1)c1ccc2sc(C(F)(F)P(=O)(O)O)c(Br)c2c1 (stereo not drawn) [Compound 192]	5.10	5.34
Cn1nncc1CNC(=O)c1ccc2sc(C(F)(F)P(=O)(O)O)c(Br)c2c1 [Compound 193]	5.23	5.50
